Laboratory results taken from publication PMC11678782, “The Antioxidant and Anti-Inflammatory Activities of the Methanolic Extract, Fractions, and Isolated Compounds from Eriosema montanum Baker f. (Fabaceae)” (Molecules, 2024).
Values after ≈ are worked out from the molar mass of the structure shown. Each block holds one molecule with its values, some of them ahead of it.

Assays:
[1] = system: LPS-stimulated RAW264.7 cells; design: method as in PMID 33202848, PMID 29471006; conditions: cited from earlier work
[2] = system: LPS-stimulated RAW 264.7 cells; test: NO production inhibition in LPS-stimulated RAW 264.7 cells (Griess); assay type: cell-based, murine; conditions: Mus musculus, RAW264.7; RAW 264.7, 2 h pre-treatment, 500 ng/mL LPS 24 h
Protocol: […] in a humidified environment containing 5% CO2 and 95% air. For NO and ROS production inhibition assays, the cytotoxic effect of tested samples at 100 µg/mL after 24 h of exposure was initially measured on RAW 264.7 cells (10,000 cells per well) using the standard MTT assay. Then, for NO production inhibition assay, RAW 264.7 cells were pre-treated with tested samples at 100 µg/mL for 2 h followed by addition of culture medium containing 500 ng/mL of lipopolysaccharide (LPS) (Merck, Darmstadt, Germany). After 24 h of incubation under standard cell-culture conditions, NO released was measured in cell supernatants using the Griess reagent (Sigma Aldrich, Darmstadt, Germany), and a SpectraMax iD3 multi-mode microplate reader (Molecular Devices, San Jose, CA, USA) was used to capture the absorbance readings at 540 nm. The ability of each tested material to reduce nitric oxide synthesis by LPS-stimulated RAW 264.7 macrophages in comparison to the negative control (cells treated with DMSO at 0.5% and LPS without extract) was used to calculate the percentage of NO production inhibition.
(§1) The IC50 values were calculated for each biological experiment using the nonlinear regression curve of the % inhibitory activity versus the logarithm (log10) of the various tested concentrations using GraphPad Prism 6.0 software (GraphPad Software, Inc., San Diego, CA, USA). The data are shown as mean ⁱ SEM (standard error of the mean) values, and all biological experiments were conducted in triplicate (n = 3). The statistical analysis was conducted using GraphPad Prism 6.0 software (GraphPad Software, Inc., San Diego, CA, USA). One-way analysis of variance (ANOVA) was used to compare the data across the tested samples and/or controls, and Student–Newman–Keuls or Dunnett’s tests were then performed. A p-value of less than 0.05 indicated a significant difference in the results.

[3] = system: prostaglandins, iNOS, pro-inflammatory cytokines, ROS, NF-κB signaling pathway; design: method as in PMID 35140617, PMID 32115816; conditions: down-regulation of prostaglandins; cited from earlier work
[4] = target: T1, soybeans 15-LOX (Glycine max, UniProt P08170); test: 15-lipoxygenase enzyme inhibitory assay (FOX); assay type: biochemical, soybean
T1 construct: purchased Merck, Darmstadt, Germany
T1 sequence (P08170 1-839): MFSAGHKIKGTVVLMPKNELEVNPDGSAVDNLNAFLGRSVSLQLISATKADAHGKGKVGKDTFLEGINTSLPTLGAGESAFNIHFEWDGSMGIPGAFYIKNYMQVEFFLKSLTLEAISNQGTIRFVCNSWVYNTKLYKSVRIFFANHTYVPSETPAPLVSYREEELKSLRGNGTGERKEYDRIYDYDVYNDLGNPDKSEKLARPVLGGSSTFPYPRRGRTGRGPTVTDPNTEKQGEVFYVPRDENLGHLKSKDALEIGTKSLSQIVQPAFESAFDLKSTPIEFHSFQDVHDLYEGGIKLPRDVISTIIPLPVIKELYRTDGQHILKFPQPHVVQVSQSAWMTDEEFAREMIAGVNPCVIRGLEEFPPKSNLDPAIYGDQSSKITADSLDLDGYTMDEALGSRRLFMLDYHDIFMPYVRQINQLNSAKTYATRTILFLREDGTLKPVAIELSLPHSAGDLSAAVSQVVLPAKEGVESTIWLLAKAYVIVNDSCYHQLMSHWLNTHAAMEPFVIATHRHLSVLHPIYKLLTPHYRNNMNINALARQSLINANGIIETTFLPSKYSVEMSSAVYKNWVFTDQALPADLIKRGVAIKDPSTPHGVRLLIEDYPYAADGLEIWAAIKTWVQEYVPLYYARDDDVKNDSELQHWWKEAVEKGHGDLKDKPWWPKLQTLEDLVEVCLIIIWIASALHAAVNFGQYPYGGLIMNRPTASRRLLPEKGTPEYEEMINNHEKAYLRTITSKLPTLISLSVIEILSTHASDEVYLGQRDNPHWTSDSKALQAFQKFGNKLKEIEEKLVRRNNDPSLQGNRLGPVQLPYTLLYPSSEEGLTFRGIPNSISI
Protocol: The method developed by Pinto et al. was used to determine the effect of the tested samples on 15-LOX inhibitory activity, with slight modifications to the 96-well microtitre plate format. Using 20 µL of tested samples at varying concentrations (3.90 to 500 µg/mL), the soybeans 15-LOX (Merck, Darmstadt, Germany) (40 µL, 200 UI/mL) were incubated at 25 °C for 5 min. The plate was then incubated at 25 °C for 20 min in the dark; after, 40 µL of linoleic acid (final concentration, 140 μM) produced in Tris-HCl buffer (50 mM, pH 7.4) was added. A total of 100 µL of the FOX reagent—sulfuric acid (30 mM), xylenol orange (100 μM), and ferrous II) sulfate (100 μM) mixed in methanol/water (9:1)—was added to terminate the test. A SpectraMax iD3 multi-mode microplate reader (Molecular Devices, San Jose, CA, USA) was used to measure the absorbance at 560 nm following 30 min of incubation at 25 °C in the dark. Gallic acid (0.78 to 100 µg/mL) was employed as the usual inhibitor of 15-LOX, while DMSO at 5% (v/v) served as the negative control. With the exception of adding the substrate after the FOX reagent, the blanks were prepared exactly like the tested samples. Formula (2) below was used to compute the 15-LOX inhibitory activity. 15 LOX inhibitory activity (%) = 100 − [(A0 − A1) − (A2 − A1)] × 100(2) where A0 is absorbance of test samples, A1 is absorbance of blank, and A2 is absorbance of negative control (DMSO 5%).
as §1

[5] = ABTS radical scavenging assay; conditions: 5 min, 734 nm
Protocol: (§2) Three in vitro antioxidant assays, namely, 2,2′-azinobis-(3-ethylbenzothiazoline-6-sulfonic acid (ABTS), 2,2′-diphenyl-1-picrylhydrazyl (DPPH), and ferric ion reducing antioxidant power (FRAP), were used to determine the antioxidant activity according to methods previously reported. Ascorbic acid (0 to 200 μg/mL) was used as positive control in these experiments, and Formula (1) below allowed us to evaluate the percentage of radical scavenging capacity. The inhibitory concentration (IC50) values were evaluated by plotting a nonlinear graph of percentage radical scavenging capacity versus logarithm of tested concentrations. Scavenging capacity (%) = [(A0 − A1)/A0] × 100(1) where A0 is absorbance of negative control, and A1 is absorbance of extract with ABTS^•+ radical cation.
Specifically, 2.45 mM of potassium persulfate and 7 mM of ABTS solution were dissolved in methanol and combined to create the ABTS^•+ radical cation, which was stored at 25 °C for a minimum of 16 h. At 734 nm, the absorbance of the generated ABTS^•+ was measured using a SpectraMax iD3 multi-mode microplate reader (Molecular Devices, San Jose, CA, USA) and calibrated to 0.70 ± 0.02. After carefully diluting 40 μL of EMME (1 mg/mL) with methanol and adding 160 μL of (ABTS^•+) radical cation, the 96-well microtiter plate was left to sit at 25 °C in the dark for five minutes. Using a SpectraMax iD3 multi-mode microplate reader, the absorbance values were measured at 734 nm against the blank (extract plus methanol without ABTS^•+). A nonlinear curve representing the percentage of ABTS^•+ scavenging capacity vs. a logarithm of tested concentrations was then plotted to determine the inhibitory concentration (IC50) values.
as §1

[6] = system: LPS-stimulated RAW 264.7 cells; test: ROS production in LPS-stimulated RAW 264.7 cells (DCFH-DA); assay type: cell-based, murine; conditions: 25, 50, 100 µg/mL, 2 h pre-treatment, 200 ng/mL LPS 24 h
Protocol: For ROS production inhibition, on a black/clear bottom 96-well plate, RAW 264.7 cells were seeded at a density of 10,000 cells per well. The cells were then pre-treated with non-toxic quantities of EMME and genistin (5) at 25, 50, and 100 µg/mL for two hours and then exposed to 200 ng/mL of LPS for twenty-four hours under standard culture conditions. Thereafter, the cells were washed twice with PBS, followed by the addition of 100 µL of fresh FBS-free medium containing 10 µM of the fluorescent probe 2′,7′-dichlorodihydrofluorescein diacetate (DCFH-DA) (Sigma-Aldrich, Darmstadt, Germany). After 30 min of additional incubation under usual culture conditions, PBS was added to the plate in place of the fluorescent probe. The fluorescence of the cells was measured using a SpectraMax iD3 multi-mode microplate reader (Molecular Devices, San Jose, CA, USA) at 485 nm (excitation) and 535 nm (emission). The percentage of cells treated with DMSO 0.5% without LPS, known as the negative control, was used to express the intracellular ROS levels. Using an excitation/emission filter (480/535 nm) on a 40× objective, images were taken with a camera (Flexacam C1, Leica Microsystems, Wetzlar, Germany) attached to a fluorescence microscope (Leica Microsytems GmbH, Wetzlar, Germany).

[7] = Ferric reducing antioxidant power (FRAP) assay; conditions: relative to 200 µg/mL gallic acid, 700 nm
Protocol: as §2
The generally used and almost standard method for performing the FRAP test is that developed by Benzie and Strain [15]. Indeed, the antioxidant power is determined in a colorimetric reaction linked to redox in which an intense blue-colored ferroustripyridyltriazine (Fe^2+-TPTZ) complex is obtained via reduction at a low pH of ferrictripyridyltriazine (Fe^3+-TPTZ). The incubation of a quantity of 50 μL of EMME (1.56 to 200 μg/mL) or 200 μg/mL of gallic acid (Merck, Lethabong, South Africa) on a 96-well plate was carried out with 50 μL of 1% potassium ferricyanide (prepared in 0.2 M of sodium phosphate buffer, pH 6.6) for 30 min at 50 °C. Then, 50 μL of 10% trichloroacetic acid (TCA), 40 μL of distilled water, and 10 μL of 0.1% ferric chloride were added, respectively. The absorbance values were recorded on a blank (extract plus sodium phosphate buffer) at 700 nm on a SpectraMax iD3 multi-mode microplate reader (Molecular Devices, San Jose, CA, USA); the FRAP activity was indicated as inhibition percentage of 200 μg/mL of gallic acid.
as §1

[8] = DPPH radical scavenging assay; conditions: 30 min, 517 nm
Protocol: as §2
To be able to determine the DPPH^• scavenging capacity of EMME, we performed a serial dilution of 40 μL of the sample (1 mg/mL) with methanol on a 96-well microtiter plate, with 160 μL of solution of DPPH^• thereafter (25 μg/mL). The incubation at 25 °C in the dark was performed after 30 min, with the absorbance values measured at 517 nm on a SpectraMax iD3 multi-mode microplate against a blank (extract plus methanol without DPPH^•). […]. Methanol with DPPH^• served as the negative control. Using Formula (1), the DPPH scavenging capability was calculated at the measured concentrations above, and as previously enumerated, the IC50 values were also calculated, as indicated in the previously described procedure.
as §1

[9] = system: LPS-activated J774.A1 cells; design: method as in PMID 17637182; conditions: cited from earlier work

Structure (SMILES): C[C@@H]1O[C@@H](O[C@H]2C(=O)c3c(O)cc(O)cc3O[C@@H]2c2ccc(O)c(O)c2)[C@H](O)[C@H](O)[C@H]1O [Astilbin]
- Inhibition of IL-1β, IL-6, NO production and NF-κB-p65 expression [1]: significantly inhibiting

- IC50 [2]: 8.93 ± 0.4 µg/mL (≈ 29.5 µM)
Structure (SMILES): O=c1c(O)c(-c2ccc(O)c(O)c2)oc2cc(O)cc(O)c12 [Quercetin, reference compound]

Structure (SMILES): O=c1c(-c2ccc(O)cc2)coc2cc(O)cc(O)c12 [genistein]
- Anti-inflammatory activities [3]: strong anti-inflammatory activities

Structure (SMILES): O=C(O)c1cc(O)c(O)c(O)c1 [Gallic acid, reference compound]
- IC50 [4]: 145 µM

- IC50 ABTS [5]: 1.28 ± 0.81 µg/mL (≈ 7.27 µM)
- IC50 FRAP [7]: 23.68 ± 2.89 µg/mL (≈ 134 µM)
- IC50 DPPH [8]: 4.08 ± 1.04 µg/mL (≈ 23.2 µM)
Structure (SMILES): O=C1O[C@H]([C@@H](O)CO)C(O)=C1O [Ascorbic acid, reference compound]
- Inhibition of LPS-induced ROS production [6]: significantly inhibit

Structure (SMILES): O=c1cc(-c2ccc(O)cc2)oc2cc(O[C@@H]3O[C@H](CO)[C@@H](O)[C@H](O)[C@H]3O[C@@H]3OC[C@](O)(CO)[C@H]3O)cc(O)c12 [Apiin]
- Inhibitory activity on NO production and iNOS expression [9]: significant inhibitory activity
